The values below come from ChEMBL document CHEMBL1201862, “PubChem BioAssay data set” (2004).

The structures appear in SMILES notation.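 Cultured in 96-well plates, cells were exposed to test compound for 48 hours across five concentrations. The concentration for 50% growth inhibition is given as GI50.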 Calls of active or inactive are those of the source. Rule as the data show it: active = GI50 up to about 1.1 µM and inactive = higher.

Among the test systems are A549; EKVX; HCT-116; HCT-15; HT-29; KM12; M14; MCF7; MDA-MB-231; MDA-N; OVCAR-8; PC-3; SF-268; SF-539; SK-MEL-2; TK-10; U-251; UACC-62.
What all share (experiment): inhibition of tumour cell growth, NCI panel, 48 h

For `N#CC(C#N)=Cc1ccc(C=C2SC3=C(SCCS3)S2)s1`, the GI50 is 55.5 µM (inactive) in the test on A549; > 100 µM (inactive) in the test on EKVX; 3.24 µM (inactive) in the test on HCT-116; 0.818 µM with HCT-15; 3.39 µM (inactive) with HT-29; 2.25 µM (inactive) in the test on KM12. In addition, the GI50 is 12.4 µM (inactive) with M14; 2.24 µM (inactive) with MCF7; 33.7 µM (inactive) with MDA-MB-231; 0.618 µM (active) in the test with MDA-N; 29.9 µM (inactive) in the test with OVCAR-8; 6.04 µM (inactive) with PC-3. Besides, the GI50 in the test with SF-268 is 40.4 µM (inactive); in the test with SF-539 it was 0.63 µM (active); with SK-MEL-2, > 100 µM (inactive); in the test on TK-10, 2.07 µM (inactive); with U-251 it was 12.4 µM (inactive); in the test on UACC-62 it was 2.89 µM (inactive).

As to `CC(C)(C)c1cc(/C=C(\C#N)C2=NCCO2)cc(C(C)(C)C)c1O`, the GI50 was 4.44 µM (inactive) in the test on A549; 4.99 µM (inactive) in the test with EKVX; 3.07 µM (inactive) in the test with HCT-116; 3.29 µM in the test with HCT-15; 3.2 µM (inactive) in the test with HT-29; 3.57 µM (inactive) in the test on KM12. Besides, the GI50 was 5.02 µM (inactive) in the test with M14; 3.4 µM (inactive) in the test with MCF7; 3.14 µM (inactive) with MDA-MB-231; 4.42 µM (inactive) in the test on MDA-N; 4.67 µM (inactive) in the test with OVCAR-8; 2.65 µM (inactive) with PC-3. The GI50 was 4.61 µM (inactive) in the test on SF-268; 3.77 µM (inactive) in the test with SF-539; 2.75 µM (inactive) in the test with SK-MEL-2; 3.48 µM (inactive) in the test with TK-10; 3.31 µM (inactive) with U-251; 4.31 µM (inactive) with UACC-62.

On to `Cc1cc(N(CCOS(C)(=O)=O)CCOS(C)(=O)=O)ccc1/C=N/c1ccc(-c2csc(-c3ccc(Br)cc3)n2)cc1`, for which the GI50 with A549 was 2.65 µM (inactive); with EKVX, 6.24 µM (inactive); in the test with HCT-116, 27.5 µM (inactive); with HCT-15, 15.2 µM; in the test with HT-29, 7.06 µM (inactive); in the test on KM12, 13.3 µM (inactive). The GI50 was 9.08 µM (inactive) in the test on M14; 1.02 µM (active) in the test on MCF7; 15.5 µM (inactive) with MDA-MB-231; 14.7 µM (inactive) in the test on MDA-N; 12.9 µM (inactive) in the test on OVCAR-8; 19.5 µM (inactive) with PC-3. Moreover, the GI50 in the test with SF-268 is 9.95 µM (inactive); in the test with SF-539, 1.17 µM (inactive); in the test on SK-MEL-2 it was 24.7 µM (inactive); in the test on TK-10, 7.57 µM (inactive); in the test with U-251, 15.2 µM (inactive); in the test with UACC-62 it was 3.66 µM (inactive).

As for `CSc1ccc(-c2cc(-c3nc4ccccc4[nH]3)nc(N)c2C#N)cc1`, the GI50 is 23.1 µM (inactive) in the test on A549; 20.1 µM (inactive) in the test on EKVX; 17.9 µM (inactive) in the test on HCT-116; 20.2 µM in the test with HCT-15; 21.9 µM (inactive) with HT-29; 21 µM (inactive) with KM12. The GI50 in the test on M14 was 16.8 µM (inactive); with MCF7, 15.6 µM (inactive); with MDA-MB-231 it was 17.1 µM (inactive); in the test with MDA-N, 20.7 µM (inactive); with OVCAR-8, 31.6 µM (inactive); in the test on PC-3, 20.7 µM (inactive). In addition, the GI50 was 17.3 µM (inactive) in the test on SF-268; 23.6 µM (inactive) with SF-539; 16.9 µM (inactive) in the test on SK-MEL-2; 31.6 µM (inactive) in the test with TK-10; 12.3 µM (inactive) in the test on UACC-62.

For the molecule `Cn1cnc2c(NCc3ccccc3)nc(NCCO)nc21` [OLOMOUCINE], the GI50 in the test on A549 is 43.9 µM (inactive); in the test on EKVX, 94.4 µM (inactive); with HCT-116, 34.8 µM (inactive); with HCT-15, 41.3 µM; in the test on HT-29, 71.4 µM (inactive); in the test on KM12, 35 µM (inactive). The GI50 with M14 was 78.9 µM (inactive); in the test on MCF7 it was 39.7 µM (inactive); in the test on MDA-MB-231 it was 92.7 µM (inactive); in the test with MDA-N, 79.4 µM (inactive); in the test on OVCAR-8, 66.2 µM (inactive); in the test with PC-3, 98.2 µM (inactive). Further, the GI50 was 49 µM (inactive) in the test on SF-268; 42.2 µM (inactive) in the test on SF-539; 98.9 µM (inactive) in the test on SK-MEL-2; 63.8 µM (inactive) in the test with TK-10; 64.4 µM (inactive) with U-251; 32.6 µM (inactive) in the test with UACC-62.

On to `O=C(O)c1cc2ccccc2c(/N=N/c2ccc(S(=O)(=O)O)cc2)c1O`, for which the GI50 in the test on A549 is > 100 µM (inactive); in the test with EKVX, > 100 µM (inactive); in the test on HCT-116 it was > 100 µM (inactive); with HCT-15, more than 100 µM; in the test on HT-29, > 100 µM (inactive); in the test with KM12, > 100 µM (inactive). Also, the GI50 with M14, with MCF7, in the test on MDA-MB-231, in the test with MDA-N, in the test on OVCAR-8 and in the test on PC-3 was > 100 µM (inactive) each time. Also, the GI50 in the test on SF-268, in the test with SF-539, with SK-MEL-2, with TK-10, in the test on U-251 and in the test on UACC-62 was > 100 µM (inactive) each time.

As for `C/C(Nc1ccc(Cl)cc1)=C1/CCOC1=O`, the GI50 was 4.89 µM (inactive) in the test with A549; 34.3 µM (inactive) with EKVX; more than 100 µM with HCT-15; 30.1 µM (inactive) in the test on HT-29; 0.618 µM (active) with KM12; 2.62 µM (inactive) with M14. For the same molecule, the GI50 in the test on MCF7 was 13.2 µM (inactive); with MDA-MB-231, > 100 µM (inactive); in the test on MDA-N it was 92.5 µM (inactive); with OVCAR-8, 7.89 µM (inactive); with PC-3 it was > 43.7 µM (inactive); in the test with SF-268, > 100 µM (inactive). Also, the GI50 was > 25.4 µM (inactive) in the test on SF-539; 12.7 µM (inactive) with SK-MEL-2; 46.8 µM (inactive) in the test with TK-10; > 100 µM (inactive) with U-251; 0.168 µM (active) in the test with UACC-62.

With `CCOC(=O)CC(N1CC1)N1CC1`, the GI50 in the test with A549 was > 10 µM (inactive); in the test with EKVX, > 10 µM (inactive); in the test on HCT-116, > 10 µM (inactive); in the test on HCT-15, more than 10 µM; in the test on HT-29, > 10 µM (inactive); with KM12, > 10 µM (inactive). Further, the GI50 with M14, in the test on MCF7, in the test with MDA-MB-231, in the test with MDA-N, in the test with PC-3 and in the test on SF-268 was > 10 µM (inactive) throughout. Besides, the GI50 in the test on SF-539, in the test on SK-MEL-2, with TK-10, with U-251 and in the test on UACC-62 was > 10 µM (inactive) in each case.
